Patent US20050271643A1, “Bacterial strains, compositions including same and probiotic use thereof” (priority 2003, published 2005)
Read-outs that look alike come from different tables or passages of the source.

Assays:
B. subtilis HE = experiment: Antibiogram by disc diffusion method; type: cell-based, Bacillus subtilis; details: for Zone of inhibition: 6 mm antibiotic discs, Mueller-Hinton plates, 18 hours at 37° C., strain B. subtilis HE
B. licheniformis PA = experiment: Antibiogram by disc diffusion method; type: cell-based, Bacillus licheniformis
[1] = 6 mm antibiotic discs, Mueller-Hinton plates, 18 hours at 37° C., strain B. licheniformis PA

Row | Compound | Zone of inhibition (B. subtilis HE) [mm] | Zone of inhibition (B. licheniformis PA; [1]) [mm] | Sensitivity or resistance of the strain to the antibiotic (in words) (B. subtilis HE) | Sensitivity or resistance of the strain to the antibiotic (in words) (B. licheniformis PA; strain B. licheniformis PA) | Zone of inhibition (B. licheniformis PA) [mm]
1 | NCC[C@H](O)C(=O)N[C@@H]1C[C@H](N)[C@@H](O[C@H]2O[C@H](CN)[C@@H](O)[C@H](O)[C@H]2O)[C@H](O)[C@H]1O[C@H]1O[C@H](CO)[C@@H](O)[C@H](N)[C@H]1O [Amikacin] | 20 ± 0.2 | 18 ± 0.1 |  |  | 
2 | CC1(C)S[C@@H]2[C@H](NC(=O)[C@H](N)c3ccc(O)cc3)C(=O)N2[C@H]1C(=O)O [Amoxicillin] | 18 ± 0.1 | 16 ± 0.1 |  |  | 
3 | CC1(C)S[C@@H]2[C@H](NC(=O)[C@H](N)c3ccccc3)C(=O)N2[C@H]1C(=O)O [Ampicillin] | 10 ± 0.3 | 0 | sensitive | resistant | 
4 | CC1(C)S[C@@H]2[C@H](NC(=O)[C@H](NC(=O)N3CCNC3=O)c3ccccc3)C(=O)N2[C@H]1C(=O)O [Azlocillin] | 18 ± 0.2 | 16 ± 0.1 |  |  | 
5 | C[C@H]1[C@H](NC(=O)/C(=N\OC(C)(C)C(=O)O)c2csc(N)n2)C(=O)N1S(=O)(=O)O [Aztreonam] | 0 | 0 | resistant |  | 
6 | CC1(C)S[C@@H]2[C@H](NC(=O)Cc3ccccc3)C(=O)N2[C@H]1C(=O)O [Benzylpenicillin] | 8 ± 0.1 | 0 | sensitive |  | 
7 | CC1(C)S[C@@H]2[C@H](NC(=O)C(C(=O)O)c3ccccc3)C(=O)N2[C@H]1C(=O)O (stereo partly shown) [Carbenicillin] | 24 ± 0.4 | 18 ± 0.3 | sensitive | sensitive | 
8 | Cn1nnnc1SCC1=C(C(=O)O)N2C(=O)[C@@H](NC(=O)[C@H](O)c3ccccc3)[C@H]2SC1 [Cefamandol] | 37 ± 0.1 | 16 ± 0.1 |  |  | 
9 | CCN1CCN(C(=O)N[C@@H](C(=O)N[C@@H]2C(=O)N3C(C(=O)O)=C(CSc4nnnn4C)CS[C@H]23)c2ccc(O)cc2)C(=O)C1=O [Cefoperazon] | 16 ± 0.1 | 12 ± 0.2 |  |  | 
10 | CO/N=C(\C(=O)N[C@@H]1C(=O)N2C(C(=O)O)=C(COC(C)=O)CS[C@H]12)c1csc(N)n1 [Cefotaxim] | 14 ± 0.2 | 10 ± 0.2 |  |  | 
11 | CO[C@@]1(NC(=O)Cc2cccs2)C(=O)N2C(C(=O)O)=C(COC(N)=O)CS[C@@H]21 [Cefoxitin] | 16 ± 0.3 | 12 ± 0.3 |  |  | 
12 | CC(C)(O/N=C(\C(=O)N[C@@H]1C(=O)N2C(C(=O)[O-])=C(C[n+]3ccccc3)CS[C@H]12)c1csc(N)n1)C(=O)O [Ceftazidim] | 8 ± 0.2 | 0 | sensitive |  | 
13 | CO/N=C(\C(=O)N[C@@H]1C(=O)N2C(C(=O)O)=CCS[C@H]12)c1csc(N)n1 [Ceftizoxim] | 0 | 0 |  |  | 
14 | CO/N=C(\C(=O)N[C@@H]1C(=O)N2C(C(=O)O)=C(CSc3nc(=O)c(=O)[nH]n3C)CS[C@H]12)c1csc(N)n1 [Ceftriaxon] | 18 ± 0.3 | 12 ± 0.2 |  |  | 
15 | CO/N=C(\C(=O)N[C@@H]1C(=O)N2C(C(=O)O)=C(COC(N)=O)CS[C@H]12)c1ccco1 [Cefuroxim] | 0 | 0 | resistant | resistant | 
16 | CC(=O)OCC1=C(C(=O)O)N2C(=O)[C@@H](NC(=O)Cc3cccs3)[C@H]2SC1 [Cephalothin] | 32 ± 0.5 | 20 ± 0.4 |  |  | 
17 | O=C(N[C@H](CO)[C@H](O)c1ccc([N+](=O)[O-])cc1)C(Cl)Cl [Chloramphenicol] | 16 ± 0.2 | 10 ± 0.1 |  |  | 
18 | CCC[C@@H]1C[C@@H](C(=O)N[C@@H]([C@H]2O[C@H](SC)[C@H](O)[C@@H](O)[C@H]2O)[C@H](C)Cl)N(C)C1 [Clindamycin] | 10 ± 0.3 | 0 |  |  | 

Row | Compound | Zone of inhibition (B. subtilis HE) [mm] | Zone of inhibition (B. licheniformis PA; [1]) [mm] | Sensitivity or resistance of the strain to the antibiotic (in words) (B. subtilis HE) | Sensitivity or resistance of the strain to the antibiotic (in words) (B. licheniformis PA; strain B. licheniformis PA) | Zone of inhibition (B. licheniformis PA) [mm]
19 | C[C@@H](O)[C@H]1C(=O)N2C(C(=O)O)=C(SCCN=CN)C[C@H]12 [Imipenem] | 36 ± 0.4 | 32 ± 0.3 |  |  | 
20 | NC[C@H]1O[C@H](O[C@H]2[C@H](O)[C@@H](O[C@H]3O[C@H](CO)[C@@H](O)[C@H](N)[C@H]3O)[C@H](N)C[C@@H]2N)[C@H](O)[C@@H](O)[C@@H]1O [Kanamycin] | 23 ± 0.1 | 20 ± 0.1 |  |  | 
21 | COc1cccc(OC)c1C(=O)N[C@@H]1C(=O)N2[C@@H]1SC(C)(C)[C@@H]2C(=O)O [Methicillin] | 18 ± 0.1 | 0 | sensitive | resistant | 
22 | CC1(C)S[C@@H]2[C@H](NC(=O)[C@H](NC(=O)N3CCN(S(C)(=O)=O)C3=O)c3ccccc3)C(=O)N2[C@H]1C(=O)O [Mezlocillin] | 20 ± 0.3 | 17 ± 0.2 |  |  | 
23 | CO[C@@]1(NC(=O)C(C(=O)O)c2ccc(O)cc2)C(=O)N2C(C(=O)O)=C(CSc3nnnn3C)CO[C@@H]21 (stereo partly shown) [Moxalactam] | 12 ± 0.3 | 12 ± 0.3 |  |  | 
24 | O=C1CN(/N=C/c2ccc([N+](=O)[O-])o2)C(=O)N1 [Nitrofurantoin] | 16 ± 0.2 | 18 ± 0.1 |  |  | 
25 | CCn1cc(C(=O)O)c(=O)c2cc(F)c(N3CCNCC3)cc21 [Norfloxacin] | 24 ± 0.2 | 24 ± 0.2 |  |  | 
26 | Cc1onc(-c2ccccc2)c1C(=O)N[C@@H]1C(=O)N2[C@@H]1SC(C)(C)[C@@H]2C(=O)O [Oxacillin] | 14 ± 0.3 | 0 | sensitive |  | 
27 | CCN1CCN(C(=O)N[C@@H](C(=O)N[C@@H]2C(=O)N3[C@@H]2SC(C)(C)[C@@H]3C(=O)O)c2ccccc2)C(=O)C1=O [Piperacillin] | 18 ± 0.3 | 12 ± 0.1 |  |  | 
28 | CN(C)[C@@H]1C(O)=C(C(N)=O)C(=O)[C@@]2(O)C(O)=C3C(=O)c4c(O)cccc4[C@@](C)(O)[C@H]3C[C@@H]12 [Tetracycline] | 24 ± 0.3 |  |  |  | 24 ± 0.2
29 | CC1(C)S[C@@H]2[C@H](NC(=O)[C@H](C(=O)O)c3ccsc3)C(=O)N2[C@H]1C(=O)O [Ticarcillin] | 24 ± 0.4 | 20 ± 0.1 | sensitive | sensitive | 
30 | NC[C@H]1O[C@H](O[C@H]2[C@H](O)[C@@H](O[C@H]3O[C@H](CO)[C@@H](O)[C@H](N)[C@H]3O)[C@H](N)C[C@@H]2N)[C@H](N)C[C@@H]1O [Tobramycin] | 24 ± 0.3 | 20 ± 0.2 |  |  | 
31 | COc1cc(Cc2cnc(N)nc2N)cc(OC)c1OC [Trimethoprim] | 24 ± 0.1 | 24 ± 0.1 |  |  | 
32 | CN[C@H](CC(C)C)C(=O)N[C@H]1C(=O)N[C@@H](CC(N)=O)C(=O)N[C@H]2C(=O)N[C@H]3C(=O)N[C@H](C(=O)N[C@H](C(=O)O)c4cc(O)cc(O)c4-c4cc3ccc4O)[C@H](O)c3ccc(c(Cl)c3)Oc3cc2cc(c3O[C@@H]2O[C@H](CO)[C@@H](O)[C@H](O)[C@H]2O[C@H]2C[C@](C)(N)[C@H](O)[C@H](C)O2)Oc2ccc(cc2Cl)[C@H]1O [Vancomycin] | 12 ± 0.1 |  |  |  | 12 ± 0.1
33 | Bactrim | 30 ± 0.2 | 30 ± 0.1 |  |  | 
34 | Gentamycin | 24 ± 0.2 | 20 ± 0.1 |  |  | 
35 | Polymyxin E | 10 ± 0.1 | 0 | sensitive |  | 
